Data taken from patent US9078444B2, “Isothiazoline derivatives as insecticidal compounds” (Syngenta Participations AG, priority 2011, dated 2015).
Where two headings read alike, the source gives them in different places.

What was measured:
Format in all cases: in vivo
[1] = test system: Diabrotica balteata; test: Diabrotica balteata (corn root worm) artificial diet test; conditions: 120 h, 200 ppm (concentration in well 18 ppm), L2 larvae, larval mortality and growth regulation after 5 days
Description: (§1) Diabrotica balteata (Corn Root Worm): A 24-well microtiter plate (MTP) with artificial diet was treated with test solutions at an application rate of 200 ppm (concentration in well 18 ppm) by pipetting. After drying, the MTPs were infested with L2 larvae (6-10 per well). After an incubation period of 5 days, samples were checked for larval mortality and growth regulation.

[2] = test system: Spodoptera littoralis; test: Spodoptera littoralis (Egyptian cotton leafworm) cotton leaf disc test; conditions: foliar, 72 h, 200 ppm sprayed on cotton leaf discs, mortality, feeding behavior, growth regulation 3 days after treatment
Description: Spodoptera littoralis (Egyptian Cotton Leafworm): Cotton leaf discs were placed on agar in a 24-well microtiter plate and sprayed with test solutions at an application rate of 200 ppm. After drying, the leaf discs were infested with […]. The samples were checked for mortality, feeding behavior, and growth regulation 3 days after treatment (DAT).

[3] = test system: Tetranychus urticae; test: Tetranychus urticae (two-spotted spider mite) bean leaf disc test; conditions: foliar, 192 h, 200 ppm sprayed on bean leaf discs, mixed ages, egg, larval and adult mortality 8 days later
Text: Tetranychus urticae (Two-Spotted Spider Mite): Bean leaf discs on agar in 24-well microtiter plates were sprayed with test solutions at an application rate of 200 ppm. After drying, the leaf discs are infested with mite populations of mixed ages. 8 days later, discs are checked for egg mortality, larval mortality, and adult mortality.

[4] = test system: Plutella xylostella; test: Plutella xylostella (diamond back moth) artificial diet test; conditions: 144 h, 200 ppm (concentration in well 18 ppm), L2 larvae, larval mortality and growth regulation after 6 days
Description: as §1, with “Plutella xylostella (Diamond Back Moth):” for “Diabrotica balteata (Corn Root Worm): A”, “(7-12” for “(6-10”, “6” for “5”

[5] = test system: Heliothis virescens; test: Heliothis virescens (tobacco budworm) egg test on artificial diet; conditions: 96 h, 200 ppm (concentration in well 18 ppm), eggs on artificial diet, egg mortality, larval mortality, growth regulation after 4 days
Description: Heliothis virescens (Tobacco Budworm): Eggs (0-24 h old) were placed in 24-well microtiter plate on artificial diet and treated with test solutions at an application rate of 200 ppm (concentration in well 18 ppm) by pipetting. After an incubation period of 4 days, samples were checked for egg mortality, larval mortality, and growth regulation.

[6] = test system: Spodoptera littoralis; test: Spodoptera littoralis persistence test on sprayed cotton plants (increased safety profile / bio-degradability); conditions: 12.5 ppm on cotton plants, 10 L3 larvae, mortality after 6 days incubation; for pest or weed control at 12.5 ppm: Spodoptera littoralis; for Control after 10 days/%: leaves excised 10 days after treatment
Description: Biological Examples Showing Increased Safety Profile:
Spodoptera littoralis (Egyptian Cotton Leafworm)
Cotton plants in the 5th leaf stage (around 5 weeks old) are treated in an automated turn table spray chamber. Plants are stored in the greenhouse length during the whole test period.
2, 16 and optionally 10 days after treatment 4 leaves from each sample are excised, placed into 14 cm plastic petri dishes on wet filter paper. The infestation of 10 L3-Spodoptera littoralis is made immediately afterwards. After an incubation period of 6 days the samples are checked for mortality.
In the following series of experiments the compounds of the invention are compared with the corresponding isoxazoline analogues from the prior art on Spodoptera littoralis (Egyptian cotton leafworm) performed as described in the method above.

[7] = test system: Thrips tabaci; test: Thrips tabaci (onion thrips) sunflower leaf disc test; conditions: foliar, 168 h, 200 ppm sprayed on sunflower leaf discs, mixed ages, mortality after 7 days
Description: Thrips tabaci (Onion Thrips): Sunflower leaf discs were placed on agar in a 24-well microtiter plate and sprayed with test solutions at an application rate of 200 ppm. After drying, the leaf discs were infested with a thrips population of mixed ages. After an incubation period of 7 days, samples were checked for mortality.

[8] = 48 h, leaves excised 2 days after treatment, read-out: Control after 2 days/%
[9] = 384 h, leaves excised 16 days after treatment, read-out: Control after 16 days/%

Row | Structure (SMILES) | pest or weed control at 200 ppm [1] | pest or weed control at 200 ppm [2] | pest or weed control at 200 ppm [3] | pest or weed control at 200 ppm [4] | pest or weed control at 200 ppm [5] | pest or weed control at 12.5 ppm [6, 8] | pest or weed control at 12.5 ppm [6, 9] | pest or weed control at 200 ppm [7] | Control after 10 days/% [6] | Control after 2 days/% ([6]; leaves excised 2 days after treatment) | Control after 16 days/% ([6]; leaves excised 16 days after treatment)
1 | Cc1cc(C2=NSC(c3cc(Cl)cc(Cl)c3)(C(F)(F)F)C2)ccc1C(=O)NCC(C)C (stereo not drawn) [Compound A46] | ≥ 80% | ≥ 80% | ≥ 80% | ≥ 80% | ≥ 80% | 40% | 0% | ≥ 80% |  |  | 
2 | Cc1cc(C2=NSC(c3cc(Cl)cc(Cl)c3)(C(F)(F)F)C2)ccc1C(=O)NCC(=O)NCC(F)(F)F (stereo not drawn) [Compound A01, 4-[5-(3,5-dichlorophenyl)-5-(trifluoromethyl)-4H-isothiazol-3-yl]-2-methyl-N-[2-oxo-2-(2,2,2-trifluoroethylamino)ethyl]benzamide] | ≥ 80% | ≥ 80% | ≥ 80% | ≥ 80% | ≥ 80% | 100% | 10% | ≥ 80% | 60% |  | 
3 | Cc1cc(C2=NSC(c3cc(Cl)cc(Cl)c3)(C(F)(F)F)C2)ccc1C(=O)NC1(C#N)CC1 (stereo not drawn) [Compound A45] | ≥ 80% | ≥ 80% | ≥ 80% | ≥ 80% | ≥ 80% | 75% | 0% | ≥ 80% |  |  | 
4 | Cc1cc(C2=NSC(c3cc(Cl)cc(Cl)c3)(C(F)(F)F)C2)ccc1C(=O)NC1CCC1 (stereo not drawn) [Compound A24] |  |  |  |  |  |  |  |  |  | 100% | 0%
5 | Cc1cc(C2=NSC(c3cc(Cl)cc(Cl)c3)(C(F)(F)F)C2)ccc1C(=O)NCc1ccccn1 (stereo not drawn) [Compound A16] | ≥ 80% | ≥ 80% | ≥ 80% | ≥ 80% | ≥ 80% | 100% | 10% | ≥ 80% | 25% |  | 
6 | Cc1cc(C2=NOC(c3cc(Cl)cc(Cl)c3)(C(F)(F)F)C2)ccc1C(=O)NC1CS(=O)(=O)C1 (stereo not drawn) [Compound A10 from WO2009/080250, reference compound] |  |  |  |  |  | 100% | 100% |  | 100% |  | 
7 | Cc1cc(C2=NSC(c3cc(Cl)cc(Cl)c3)(C(F)(F)F)C2)ccc1C(=O)NCC(F)(F)F (stereo not drawn) [Compound A03] | ≥ 80% | ≥ 80% | ≥ 80% | ≥ 80% | ≥ 80% |  |  | ≥ 80% |  |  | 
8 | COCC(C)NC(=O)c1ccc(C2=NSC(c3cc(Cl)cc(Cl)c3)(C(F)(F)F)C2)cc1C (stereo not drawn) [Compound A06] | ≥ 80% | ≥ 80% | ≥ 80% | ≥ 80% | ≥ 80% |  |  | ≥ 80% |  |  | 
9 | CCO/N=C/NC(=O)c1ccc(C2=NSC(c3cc(Cl)cc(Cl)c3)(C(F)(F)F)C2)cc1C (stereo not drawn) [Compound C2, 4-[5-(3,5-dichlorophenyl)-5-(trifluoromethyl)-4H-isothiazol-3-yl]-N-[(E)-ethoxyiminomethyl]-2-methyl-benzamide] | ≥ 80% | ≥ 80% | ≥ 80% | ≥ 80% | ≥ 80% |  |  | ≥ 80% |  |  | 
